PubChem BioAssay (NCI)
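The compound was tested at five concentrations on cells cultured in 96-well plates, with a 48-hour exposure period. Abbreviation: GI50, concentration required for 50% inhibition of growth. TGI denotes the concentration required for complete inhibition of growth.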

How the values were obtained:
Assay in all cases: inhibition of tumour cell growth, NCI panel, 48 h
KM12 colon = test system: KM12 colon
HOP-62 NSCLC = test system: HOP-62 NSCLC
SK-MEL-2 melanoma = test system: SK-MEL-2 melanoma
SN12C renal = test system: SN12C renal
SK-OV-3 ovarian = test system: SK-OV-3 ovarian
UO-31 renal = test system: UO-31 renal
SR leukemia = test system: SR leukemia
RPMI-8226 leukemia = test system: RPMI-8226 leukemia
LOX IMVI melanoma = test system: LOX IMVI melanoma
PC-3 prostate = test system: PC-3 prostate
CAKI-1 renal = test system: CAKI-1 renal

SMILES | TGI (KM12 colon) | TGI (HOP-62 NSCLC) | TGI (SK-MEL-2 melanoma) | TGI (SN12C renal) | TGI (SK-OV-3 ovarian) | TGI (UO-31 renal) | TGI (SR leukemia) | TGI (RPMI-8226 leukemia) | TGI (LOX IMVI melanoma) | TGI (PC-3 prostate) | TGI (CAKI-1 renal) | GI50 (KM12 colon) | GI50 (PC-3 prostate) | GI50 (SN12C renal) | GI50 (SK-OV-3 ovarian) | GI50 (UO-31 renal) | GI50 (CAKI-1 renal)
CCc1cccc(NC(=O)c2cc(/C=C/c3ccccc3)[nH]c(=S)n2)c1 | > 100 µM | > 100 µM | > 100 µM | > 100 µM | > 100 µM | > 100 µM | > 100 µM | > 100 µM | – | – | – | – | – | – | – | – | –
CC(C)=CCOc1ccc(-c2coc3cc4c(c(O)c3c2=O)C=CC(C)(C)O4)cc1 | > 100 µM | > 100 µM | – | > 100 µM | – | > 100 µM | > 100 µM | > 100 µM | > 100 µM | – | – | – | – | – | – | – | –
C[C@H]1S[C@H](c2c(F)cccc2F)n2c1nc1ccccc12 | > 100 µM | > 100 µM | > 100 µM | > 100 µM | > 100 µM | > 100 µM | – | > 100 µM | – | > 100 µM | > 100 µM | – | – | – | – | – | –
CC(=O)OCC1=CC2CCC3C(C)(CCC[C@]3(C)COC(C)=O)C23CC[C@H]1C3 (some centres undefined) | > 100 µM | > 100 µM | > 100 µM | > 100 µM | > 100 µM | > 100 µM | 76.5 µM | 63.1 µM | 62.3 µM | – | > 100 µM | – | – | – | – | – | –
COC1(OC)C2C=CC1C([C@](C)(N)CO)C2 (some centres undefined) | > 100 µM | > 100 µM | – | > 100 µM | > 100 µM | > 100 µM | > 100 µM | – | – | > 100 µM | > 100 µM | – | – | – | – | – | –
COc1ccc(/C=C/c2nc(=S)[nH][nH]2)cc1OC | – | – | > 100 µM | > 100 µM | – | > 100 µM | > 100 µM | > 100 µM | > 100 µM | – | > 100 µM | – | – | – | – | – | –
Cn1c(=O)[nH]c2c(c1=O)C(=O)CN2 | > 100 µM | – | > 100 µM | > 100 µM | > 100 µM | > 100 µM | > 100 µM | > 100 µM | > 100 µM | – | > 100 µM | – | – | – | – | – | –
CC(C)(C)NC(=S)N/N=C/c1ccccn1 | > 100 µM | > 79.8 µM | > 100 µM | > 96.1 µM | > 100 µM | > 47.8 µM | – | 3.83 µM | > 76.7 µM | > 100 µM | > 100 µM | – | – | – | – | – | –
Cc1cnc2[nH]c(-c3ccc(Cl)cc3)cc(=O)c2c1 | > 100 µM | > 100 µM | > 100 µM | > 100 µM | > 100 µM | > 60.5 µM | > 100 µM | > 60.3 µM | > 100 µM | – | > 55.6 µM | – | – | – | – | – | –
Oc1ccc(/C=N/c2nccs2)c(O)c1 | > 100 µM | > 100 µM | – | – | > 100 µM | > 100 µM | – | – | > 100 µM | > 100 µM | > 100 µM | – | – | – | – | – | –
COc1ccc(NC(=O)NNS(=O)(=O)c2ccc(C)cc2)cc1 | > 100 µM | > 100 µM | > 100 µM | > 100 µM | > 100 µM | > 100 µM | > 100 µM | > 100 µM | – | > 100 µM | > 100 µM | – | – | – | – | – | –
Clc1ccc(N2N=C(c3cccc(Nc4ccncc4)c3)CC2c2ccc(Br)cc2)cc1 (centres undefined) | 3.27 µM | – | – | 3.21 µM | 3.92 µM | 2.75 µM | – | – | – | 3.19 µM | 2.9 µM | 1.73 µM | 1.57 µM | 1.67 µM | 2 µM | 1.41 µM | 1.52 µM
O=C(NCc1ccccc1)C1C(=O)C(=O)N(Cc2ccccc2)C1=O (centres undefined) | > 100 µM | > 100 µM | > 100 µM | > 100 µM | > 100 µM | > 100 µM | > 100 µM | > 100 µM | > 100 µM | – | > 100 µM | – | – | – | – | – | –
CC1OC(CC2C=CCc3c(O)c4c(c(O)c32)C(=O)c2ccccc2C4=O)CC(NC(=O)C(F)(F)F)C1O (centres undefined) | 61.4 µM | 19 µM | 30.2 µM | 18.2 µM | 24.6 µM | 42.7 µM | 13.5 µM | 28 µM | 20.6 µM | – | 20.7 µM | – | – | – | – | – | –
CC1=NNC(=O)C1C1C=C(c2c[nH]c3ccccc23)OC1=O (centres undefined) | > 100 µM | > 100 µM | > 100 µM | > 100 µM | > 100 µM | > 100 µM | – | > 100 µM | > 100 µM | > 100 µM | > 100 µM | – | – | – | – | – | –
O=C(O)CCC(NC(=O)c1ccc(CNc2nc3cc(C(F)(F)F)ccc3nc2C(=O)O)cc1)C(=O)O (centres undefined) | > 100 µM | > 100 µM | > 100 µM | – | > 100 µM | > 100 µM | > 100 µM | – | > 100 µM | > 100 µM | > 100 µM | – | – | – | – | – | –
N#CCC(=O)Nc1ccccc1O | > 100 µM | > 100 µM | > 100 µM | > 100 µM | > 100 µM | > 100 µM | > 100 µM | > 100 µM | – | – | > 100 µM | – | – | – | – | – | –
COC(=O)C(C#N)C1NC(=O)c2ccccc21 (centres undefined) | > 100 µM | > 100 µM | – | > 100 µM | > 100 µM | > 100 µM | > 100 µM | > 100 µM | > 100 µM | – | – | – | – | – | – | – | –
COc1cc2c(cc1OC)[C@H]1C(COC(=O)Nc3ccccc3)CN1CC2 (some centres undefined) | > 100 µM | > 100 µM | > 100 µM | > 100 µM | > 100 µM | > 100 µM | > 100 µM | > 100 µM | > 100 µM | – | > 100 µM | – | – | – | – | – | –
O=C(NCCN(CCNC(=O)c1cccc(=O)n1O)CCNC(=O)c1cccc(=O)n1O)c1cccc(=O)n1O | > 100 µM | > 100 µM | > 100 µM | > 100 µM | > 100 µM | > 100 µM | > 100 µM | > 100 µM | – | > 100 µM | > 100 µM | – | – | – | – | – | –
CCC(=O)CCC1=Nc2nnc(CCCCc3nnc4n3C(=O)C(CCC(=O)CC)=N4)n2C1=O | > 100 µM | > 100 µM | > 100 µM | > 100 µM | > 100 µM | > 100 µM | – | > 100 µM | > 100 µM | – | > 100 µM | – | – | – | – | – | –
CC(O)C1OC(n2ccc(=O)[nH]c2=O)CC1n1cncn1 (centres undefined) | > 100 µM | > 100 µM | > 100 µM | > 100 µM | > 100 µM | > 100 µM | > 100 µM | > 100 µM | > 100 µM | – | > 100 µM | – | – | – | – | – | –
CCOC(=O)c1ccc(N(CCOS(=O)(=O)c2ccc(C)cc2)CCOS(=O)(=O)c2ccc(C)cc2)cc1 | > 100 µM | – | 66.8 µM | – | – | > 100 µM | – | > 100 µM | > 100 µM | 75 µM | > 100 µM | – | – | – | – | – | –
